# Target: GABAA receptor α2 subunit (α2β3γ2 GABAAR) (Rattus norvegicus, UniProt P18508+P23576)
# Assay: [3H]Ro […]-4513 displacement on HEK293 membranes
# Format: binding
# Sequence of GABAA receptor α2 subunit (α2β3γ2 GABAAR) (P23576 29-451): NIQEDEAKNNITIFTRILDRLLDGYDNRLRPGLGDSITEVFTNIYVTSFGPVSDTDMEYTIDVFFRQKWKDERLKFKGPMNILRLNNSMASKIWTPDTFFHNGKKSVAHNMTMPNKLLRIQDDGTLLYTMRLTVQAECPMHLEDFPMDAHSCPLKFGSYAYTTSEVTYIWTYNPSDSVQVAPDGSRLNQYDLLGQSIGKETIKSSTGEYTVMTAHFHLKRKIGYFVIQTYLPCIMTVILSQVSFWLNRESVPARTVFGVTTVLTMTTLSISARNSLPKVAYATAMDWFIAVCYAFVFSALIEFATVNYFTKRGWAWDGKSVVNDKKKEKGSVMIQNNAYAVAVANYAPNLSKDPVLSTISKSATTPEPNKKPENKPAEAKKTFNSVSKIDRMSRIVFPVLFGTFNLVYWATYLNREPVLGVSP
# Sequence of GABAA receptor α2 subunit (α2β3γ2 GABAAR) (P18508 39-466): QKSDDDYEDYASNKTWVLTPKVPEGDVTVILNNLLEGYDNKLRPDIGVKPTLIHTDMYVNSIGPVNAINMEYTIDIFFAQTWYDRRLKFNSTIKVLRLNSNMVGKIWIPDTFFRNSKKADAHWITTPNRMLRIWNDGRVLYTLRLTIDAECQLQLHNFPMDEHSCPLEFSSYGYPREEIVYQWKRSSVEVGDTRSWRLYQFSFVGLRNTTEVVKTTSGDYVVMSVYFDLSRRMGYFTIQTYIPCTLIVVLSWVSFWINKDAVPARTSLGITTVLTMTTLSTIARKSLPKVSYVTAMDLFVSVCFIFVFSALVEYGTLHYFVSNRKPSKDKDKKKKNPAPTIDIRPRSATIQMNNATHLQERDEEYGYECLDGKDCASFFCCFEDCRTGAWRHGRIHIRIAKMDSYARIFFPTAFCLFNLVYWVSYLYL
# Sequence of GABAA receptor α2 subunit (α2β3γ2 GABAAR) (P63079 26-473 partner): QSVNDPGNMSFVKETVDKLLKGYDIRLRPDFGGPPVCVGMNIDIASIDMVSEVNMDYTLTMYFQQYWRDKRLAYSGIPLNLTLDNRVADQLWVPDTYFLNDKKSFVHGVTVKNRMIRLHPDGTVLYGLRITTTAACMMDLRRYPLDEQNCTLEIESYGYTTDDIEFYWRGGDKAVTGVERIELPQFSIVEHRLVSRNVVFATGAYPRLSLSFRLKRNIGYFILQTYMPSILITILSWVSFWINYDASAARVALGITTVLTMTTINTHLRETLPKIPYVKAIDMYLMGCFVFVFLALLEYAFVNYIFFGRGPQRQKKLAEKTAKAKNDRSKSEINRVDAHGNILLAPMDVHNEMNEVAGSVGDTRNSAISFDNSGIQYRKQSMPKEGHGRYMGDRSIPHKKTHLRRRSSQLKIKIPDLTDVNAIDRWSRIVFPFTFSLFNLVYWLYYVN
smiles,measurement,value
"C#Cc1ccc2c(c1)C(c1ccccn1)=NCc1c(C(=O)OCC)ncn1-2 [compound 2 in Rivas et al, 2009, ethyl 8-ethynyl-6-(pyridin-2-yl)-4H-benzo[f]imidazo[1,5-a][1,4]diazepine-3-carboxylate]",Ki,221 ± 22 nM

# Source: article PMC3870792 (Neuropsychopharmacology, 2013)
